{"source": "patent US7973128B2", "about": "“Immunogenic polypeptide composed of tumor antigen-derived optimized cryptic peptides, and uses thereof” (Vaxon Biotech, priority 2005, dated 2011)", "key": {"[1]": {"system": "HLA-A*0201 transgenic HHD mice", "assay": "Tetramer-positive CD8 T cells in draining lymph nodes of vaccinated HHD mice", "format": "in vivo, mouse", "conditions": "for Responding mice (response to at least one peptide) / Frequency of strong responses (% of tetramer-positive CD8 cells at least twice the cutoff value; ++): HHD mice vaccinated with polypeptide; for Trispecific response: HHD mice, response to all three peptides", "procedure": "HHD mice were injected subcutaneously with 100 μg of nonamer/decamer peptides, and with 240 μg of polypeptide emulsified in incomplete Freund's adjuvant (IFA) plus 150 μg of the I-A^b restricted HBVcore128 T-helper epitope. Eleven days later spleen cells (5×10^7 cells in 10 ml) from immunized mice were stimulated in vitro with peptide (10 μM) in RPMI 1640+10% FCS for five days. The CTL lines were established by weekly re-stimulation in vitro with irradiated spleen cells in the presence of diminishing peptide concentrations (1 to 0.1 μM) and 50 U/ml IL-2 (Proleukin, Chiron Corp., Emeryville, Calif.).\nFor tetramer labeling, cells from inguinal and para-aortic lymph nodes (LN) of immunized mice were stained with 15 μg/ml PE-coupled HLA-A2/TERT988Y, HLA-A2/MAGE-A248V9 and HLA-A2/HER-2/neu402Y tetramers (Proimmune, Oxford, UK) in the presence of an anti-Fc receptor antibody (clone 2.4 G2) in 20 μl of PBS, 2% FCS for 1 h at room temperature. The cells were washed once in PBS, 2% FCS and then stained with anti-CD44-FITC (clone 1M.178), anti-TCRβ-cychrome (clone H57) and anti-CD8α-APC (clone 53.6.7) (BD Biosciences, Le Pont de Claix, France) in 50 μl of PBS, 2% FCS for 30 min at 4° C. The cells were then washed once in PBS, 2% FCS and immediately analyzed in a FACSCalibur® flow cytometer (Becton Dickinson, San Jose, Calif., USA).\nThe simplest way to stimulate a polyspecific CTL response in vivo would be to inject a mixture of the relevant peptides. Therefore, the inventors examined whether HHD mice vaccinated with an equimolar mixture of peptides HER-2/neu402Y, TERT988Y and MAGE-A248V9 developed a polyspecific response in vivo. The immune response was evaluated by measuring the frequency of peptide-specific CD8 T cells in the lymph nodes draining the injection site seven days after vaccination, using specific tetramers. Before use, each tetramer was validated with peptide-specific CTL lines as previously described (Miconnet et al., 2002). A positive response was recorded when the percentage of tetramer-positive CD8 cells was higher than the mean percentage+3 standard deviations of tetramer-positive CD8 cells in six naive mice (0.16% for MAGE-A248V9, 0.13% for HER-2/neu402Y and 0.16% for TERT988Y). Eight mice were vaccinated with the peptide mixture in two independent experiments (Table 2). […] Three mice responded to one peptide and five responded to two peptides. Responses to MAGE-A248V9 were more frequent (6/8 mice) than responses to HER-2/neu402Y (4/8 mice) or TERT988Y (3/8 mice).\nHHD mice were vaccinated with each polypeptide, and CD8 T cells specific for the individual peptides were identified in draining lymph nodes by using specific tetramers. All six polypeptide variants were immunogenic in HHD mice (i.e., they generated a response to at least one peptide) but the frequency of responding mice varied from one variant to the other. The most immunogenic variants were Poly-1, Poly-3 and Poly-6, with 100%, 87% and 83% of responding mice, respectively (Table 6). Poly-2, Poly-4 and Poly-5 induced a response in respectively 57%, 62% and 62% of vaccinated mice. The frequency of strong responses (% of tetramer-positive CD8 cells at least twice the cutoff value; designated ++) was highest with Poly-6 (41% of all responses), Poly-3 (30% of all responses) and Poly-1 (25% of all responses). The responses were directed against MAGE-A248V9 in 74% of responding mice, HER-2/neu402Y in 71% and TERT988Y in 55%."}, "[2]": {"system": "PBMC from healthy HLA-A*0201 donors", "assay": "In vitro stimulation of healthy donor PBMC, intracellular IFNγ labeling of CD8 cells", "format": "cell-based, human", "conditions": "for Donors with responses to all three peptides (trispecific): healthy donor PBMC, IFNγ-producing CD8 cells", "procedure": "PBMC were collected by leukapheresis from healthy HLA-A*0201 volunteers. Dendritic cells (DC) were produced from adherent cells (2×10^6 cells/ml) cultured for seven days with 500 IU/ml GM-CSF (Leucomax®, Schering-Plough, Kenilworth, N.J.) and 500 IU/ml IL-4 (R&D Systems, Minneapolis, Minn.) in complete medium (RPMI 1640 supplemented with 10% heat-inactivated human AB serum, […] and antibiotics). On day 7, DC were pulsed with 10 μM peptides or polypeptides for 2 h; the maturation agents Poly I:C (Sigma, Oakville, Canada) at 100 ng/ml, and anti-CD40 mAb (clone G28-5, ATCC, Manassas, Va.) at 2 μg/ml were added to the culture and DCs were further incubated at 37° C. overnight or for up to 48 hours. Mature DC were then irradiated (3500 rads). CD8+ cells were purified by positive selection with CD8 MicroBeads (Miltenyi Biotec, Auburn, Calif.) according to the manufacturer's instructions. CD8^+ cells (2×10^5)+CD8^− cells (6×10^4) were stimulated with 2×10^4 peptide-pulsed DC in complete culture medium supplemented with 1000 IU/ml IL-6 and 5 IU/ml IL-12 (R&D Systems, Minneapolis, Minn.) in round-bottomed 96-well plates. From day 7, cultures were restimulated weekly with peptide-loaded DC in the presence of 20 IU/ml IL-2 (Proleukin, Chiron Corp., Emeryville, Calif.) and 10 ng/ml IL-7 (R&D Systems, Minneapolis, Minn.). After the third restimulation, CD8 cells were tested in an IFN-γ release assay.\nT cells (10^5) were incubated with 2×10^5 T2 cells loaded with stimulating peptide in the presence of 20 μg/ml Brefeldin-A (Sigma, Oakville, Canada). Six hours later they were washed, stained with r-phycoerythrin-conjugated anti-CD8 antibody (Caltag Laboratories, Burlingame, Calif.) in PBS for 25 min at 4° C., washed again, and fixed with 4% PFA. The cells were then permeabilized with PBS, 0.5% BSA, 0.2% saponin (Sigma, Oakville, Canada), and labeled with an allophycocyanin-conjugated anti-IFNγ mAb (PharMingen, Mississauga, Canada) for 25 min at 4° C. before analysis with a FACSCalibur™ flow cytometer (Becton Dickinson, Mountain View, Calif.).\nThe inability of the peptide mixture to stimulate a trispecific CD8 T cell response was confirmed in vitro with human cells. […] PBMC activation was evaluated by measuring the percentage of IFNγ-producing CD8 cells by means of intracellular labeling. A positive response was recorded when the percentage of activated PBMC was at least twice that obtained with an irrelevant peptide. […]\nIn vitro immune responses were assessed by measuring the percentage of CD8 cells producing IFNγ after specific peptide activation. […]"}}}
{"substance": "YLEEITGYL-YLEYRQVPV-YLQVNSLQTV (SEQ ID No: 6) (YLEEITGYLYLEYRQVPVYLQVNSLQTV; Poly-4) [polypeptide variant, arrangement N-M-T]", "values": [{"measurement": "Responding mice (response to at least one peptide)", "setting": "[1]; tetramers", "value": 62, "unit": "%"}, {"measurement": "Trispecific response", "setting": "[1]", "value": "37.5 % of vaccinated mice"}]}
{"substance": "YLEEITGYL-YLQVNSLQTV-YLEYRQVPV (SEQ ID No: 5) (YLEEITGYLYLQVNSLQTVYLEYRQVPV; Poly-3) [polypeptide variant, arrangement N-T-M]", "values": [{"measurement": "Frequency of strong responses (% of tetramer-positive CD8 cells at least twice the cutoff value; ++)", "setting": "[1]", "value": "30 % of all responses"}, {"measurement": "Responding mice (response to at least one peptide)", "setting": "[1]; tetramers", "value": 87, "unit": "%"}, {"measurement": "Trispecific response", "setting": "[1]", "value": "12.5 % of vaccinated mice"}]}
{"substance": "YLEYRQVPV-YLEEITGYL-YLQVNSLQTV (SEQ ID No: 3) (YLEYRQVPVYLEEITGYLYLQVNSLQTV; Poly-1) [polypeptide variant of MAGE-A248V9, HER-2/neu402Y and TERT988Y, arrangement M-N-T]", "values": [{"measurement": "Frequency of strong responses (% of tetramer-positive CD8 cells at least twice the cutoff value; ++)", "setting": "[1]", "value": "25 % of all responses"}, {"measurement": "Responding mice (response to at least one peptide)", "setting": "[1]; tetramers", "value": 100, "unit": "%"}, {"measurement": "Trispecific response", "setting": "[1]", "value": "28.5 % of vaccinated mice"}, {"measurement": "Donors with responses to all three peptides (trispecific)", "setting": "[2]", "value": "25 % of donors"}]}
{"substance": "YLEYRQVPV-YLQVNSLQTV-YLEEITGYL (SEQ ID No: 4) (YLEYRQVPVYLQVNSLQTVYLEEITGYL; Poly-2) [polypeptide variant, arrangement M-T-N]", "values": [{"measurement": "Responding mice (response to at least one peptide)", "setting": "[1]; tetramers", "value": 57, "unit": "%"}, {"measurement": "Immunogenicity in HHD mice, in words", "setting": "[1]; response to at least one peptide", "value": "very weakly immunogenic"}, {"measurement": "Mice responding simultaneously to all three peptides (trispecific response), in words", "setting": "[1]; vaccinated HHD mice, tetramers", "value": "did not induce a trispecific response in any mice"}]}
{"substance": "YLQVNSLQTV-YLEEITGYL-YLEYRQVPV (SEQ ID No: 7) (YLQVNSLQTVYLEEITGYLYLEYRQVPV; Poly-5) [polypeptide variant, arrangement T-N-M]", "values": [{"measurement": "Responding mice (response to at least one peptide)", "setting": "[1]; tetramers", "value": 62, "unit": "%"}, {"measurement": "Trispecific response", "setting": "[1]", "value": "25 % of vaccinated mice"}]}
{"substance": "YLQVNSLQTV-YLEYRQVPV-YLEEITGYL (SEQ ID No: 2) (YLQVNSLQTVYLEYRQVPVYLEEITGYL; Poly-6) [polypeptide variant, arrangement T-M-N]", "values": [{"measurement": "Frequency of strong responses (% of tetramer-positive CD8 cells at least twice the cutoff value; ++)", "setting": "[1]", "value": "41 % of all responses"}, {"measurement": "Responding mice (response to at least one peptide)", "setting": "[1]; tetramers", "value": 83, "unit": "%"}, {"measurement": "Trispecific response", "setting": "[1]", "value": "67 % of vaccinated mice"}, {"measurement": "Strength of responses in human donor cells, in words", "setting": "[2]; against MAGE-A248V9 in donors #D7017 and #D7225, against HER-2/neu402Y in donor #D7744", "value": "strongest responses"}, {"measurement": "Peptides the donor's CD8 cells responded to", "setting": "[2]; donor #D7225", "value": "all three peptides"}, {"measurement": "Donors with responses to all three peptides (trispecific)", "setting": "[2]", "value": "80 % of donors"}]}
